Assay results as given in US8633225B2, “Piperidinium compounds and cosmetic compositions containing them” (Beiersdorf AG, priority 2006, dated 2014).

Experiment: inhibiting or reducing perspiration (antihidrotic effect); statement only, no test described
Conditions: qualitative statement

Structure (SMILES): CCC(C)C(C(=O)OC1CC[N+](C)(C)CC1)c1ccccc1.[Br-] (stereo not shown) [4-{[2-(2-butyl)-2-phenylacetyl)oxy]}-1,1-dimethyl-piperidinium bromide]
- efficacy in inhibiting perspiration: very good efficacy in inhibiting perspiration
